The source of these data is ChEMBL document CHEMBL1857833, “Screening and optimization of specific chemical series against human African Trypanosomiasis (HAT)”.

The nature of series [1]: in vitro. As to conditions: mouse.
Description: DNDI: half life in mouse liver microsomes at a concentration of 1uM
The nature of series [2]: DNDI: Lipophilicity measured in Chromatographic hydrophobicity index (CHI) assay, pH 7.4. Particulars: buffer. Format: physicochemical.
Series [3] is described as follows: DNDI: Cytotoxicity against L929 mouse fibroblasts, CYTO-SP, 24 hour. Format: toxicity, cell-based. Particulars: mouse, L929 mouse fibroblasts.
The conditions of series [4]: mouse, microsomes, 1 µM.
Description: DNDI: in vitro intrinsic clearance in mouse liver microsomes at a concentration of 1uM
Series [5] is described as follows: in vitro. As to conditions: human.
Description: DNDI: half life in human liver microsomes at a concentration of 1uM
For series [6], the system named is Trypanosoma brucei. In words: DNDI: Inhibition of Human African Trypanosomiasis, SBRI 427, in vitro. Format: functional, organism-based.
The nature of series [7]: in vitro. As to conditions: human. The source holds these as a separate data set.
Description: DNDI: in vitro intrinsic clearance in human liver microsomes at a concentration of 1uM
A short description of series [8]: DNDI: Solubility in phosphate buffered saline at pH7.4 measured by nephelometry at room temperature (NEPH-RT). As to conditions: pH 7.4. The series is classed as physicochemical.
A short description of series [9]: DNDI: Cytotoxicity against L929 mouse fibroblasts, 72 hour. Particulars: mouse, L929 mouse fibroblasts. The series is classed as toxicity, cell-based.
Series [10] is described as follows: DNDI: in vitro intrinsic clearance in human liver microsomes at a concentration of 10uM. Format: ADME, Microsome.
A short description of series [11]: DNDI: half life in human liver microsomes at a concentration of 10uM. The series is classed as ADME, Microsome.
Series [12] in a line: DNDI: in vitro intrinsic clearance in mouse liver microsomes at a concentration of 10uM. Format: ADME, Microsome. As to conditions: read-out: CLint in vitro.
A short description of series [13]: DNDI: half life in mouse liver microsomes at a concentration of 10uM. The series is classed as ADME, Microsome.
Series [14] is described as follows: DNDI: Cytotoxicity against L-6 rat myoblasts from skeletal muscle cells. The series is classed as toxicity, cell-based, L6. Particulars: L-6 rat skeletal muscle myoblasts.
A further series has as its system Trypanosoma cruzi. The experiment in a line: DNDI: Inhibition of Chagas Disease parasite Trypanosoma cruzi (Tulahuen LacZ, Clone C4), in vitro. The series is classed as functional, organism-based.
Series [15] is described as follows: DNDI: Solubility in phosphate buffered saline at pH7.4 measured by optical density (turbidimetry) at room temperature (OD-RT). Particulars: pH 7.4. Format: physicochemical.
Series [16] concerns Trypanosoma brucei. In words: DNDI: Inhibition of Human African Trypanosomiasis, Cross 22, in vitro. The series is classed as functional, organism-based.
The subject of a further series is Leishmania donovani. In words: DNDI: Inhibition of formation of Leishmania donovani (strain MHOM/ET/67/L82) axenic amastigotes, in vitro. The series is classed as functional, organism-based.
For the next series, the system named is Plasmodium falciparum. In words: DNDI: Inhibition of the malaria parasite Plasmodium falciparum, in vitro. Format: functional, organism-based. Particulars: K1.
For series [17], the system named is Trypanosoma brucei rhodesiense. The experiment in a line: DNDI: Inhibition of Human African Trypanosomiasis (HAT), STIB 900, in vitro. The series is classed as functional, organism-based.
Setting [18] is: Trypanosoma brucei, SBRI 427, read-out: IC50.
The mark [19] stands for this setting: liver microsomes, CLint in vitro.

Structures are written as SMILES. Values after ≈ are worked out from the molar mass of the structure shown. Values joined by “and” are separate entries in the source; they are usually repeats but may differ in a detail not shown here. Identical values can stand only once.

Turning to `O/N=C(\NC1CCCCC1)c1cccnc1`, the half-life at 1 µM in the series “in vitro [1]” (microsomes) was 70 min; in “in vitro [5]” (microsomes), 277 min. The same molecule yielded a chromatographic logD in series [2] of 2.82. In [3], the IC50 at 24 h was found to be 50 µg/mL (≈ 228 µM). Further, the CLint in vitro in series [4] was found to be 12 µL/min/mg. Moreover, the 50% inhibitory concentration (IC50) in the series with Trypanosoma brucei [6] (setting [18]) is greater than 5 µg/mL. For the same molecule, in the series “in vitro [7]” (microsomes), the microsomal CLint at 1 µM was found to be 3 µL/min/mg. Also, in series [8], the kinetic solubility is greater than 200 µM.
Molecule `CCCCCC(C)NCc1coc(-c2cccc(OC)c2)n1` (stereo not given) returned an IC50 at 72 h in series [9] of 6.95 µg/mL (≈ 23 µM). Further, the chromatographic logD in series [2] is 4.32. 18 µg/mL (≈ 59.5 µM) corresponded to half-maximal inhibition in [3] (IC50 at 24 h). The same molecule had a CLint in vitro in [10] of 23 µL/min/mg. The half-life at 10 µM in series [11] stood at 127 min; in series [13] it was 54 min. Also, the microsomal CLint at 10 µM in series [12] was 53 µL/min/mg. In addition, in the series with Trypanosoma brucei [6] (setting [18]), the IC50 amounted to 2.26 µg/mL (≈ 7.47 µM).
As to `O/N=C(\NC1CCCCC1)c1cc(F)cc(F)c1`, the half-life at 1 µM in the series “in vitro [1]” (liver microsomes, t (1 / 2)) was determined as 25 min; in the series “in vitro [5]” (liver microsomes, t (1 / 2)) it was 61 min. In series [2], this molecule gave a chromatographic logD of 4.26. Moreover, the IC50 at 24 h in series [3] is greater than 50 µg/mL. For the same molecule, the CLint in vitro in series [4] was determined as 35 µL/min/mg. In addition, the IC50 in the series on Trypanosoma brucei [6] (setting [18]) is greater than 5 µg/mL. Besides, the microsomal CLint at 1 µM in “in vitro [7]” (setting [19]) turned out to be 14 µL/min/mg. The molecule further came in with a kinetic solubility in series [8] greater than 200 µM.
Regarding `CC(C)(C)CN/C(=N\O)c1ccccc1-c1ccccc1`, the half-life at 1 µM in the series “in vitro [1]” (liver microsomes, t (1 / 2)) came to 11 min; in “in vitro [5]” (liver microsomes, t (1 / 2)), 67 min. Also, in series [2], the chromatographic logD was 4.67. This molecule also gave an IC50 at 24 h in series [3] greater than 50 µg/mL. Further, the CLint in vitro in [4] is 78 µL/min/mg. In addition, the IC50 in the series on Trypanosoma brucei [6] (setting [18]) came to 2.02 µg/mL (≈ 7.15 µM). Further, in “in vitro [7]” (setting [19]), the microsomal CLint at 1 µM stood at 13 µL/min/mg. In [8], this molecule had a kinetic solubility of 50 µM (≈ 14.1 µg/mL).
With `COC/C(=N/O)c1ccc(OC)cc1`, the half-life at 1 µM was 44 min in the series “in vitro [1]” (liver microsomes, t (1 / 2)) and 315 min in “in vitro [5]” (liver microsomes, t (1 / 2)). This molecule yielded a chromatographic logD in [2] of 1.64. Further, the IC50 at 24 h in [3] is greater than 50 µg/mL. In series [4], this molecule yielded a CLint in vitro of 19 µL/min/mg. Further, the IC50 in the series with Trypanosoma brucei [6] (setting [18]) was greater than 5 µg/mL. The microsomal CLint at 1 µM in the series “in vitro [7]” (setting [19]) came to 3 µL/min/mg. The molecule further registered a kinetic solubility in series [8] of 50 µM (≈ 9.76 µg/mL).
Consider `O/N=C(\CNC1CCCCC1)c1ccccc1`, for which the half-life at 1 µM in the series “in vitro [1]” (liver microsomes, t (1 / 2)) is 15 min; in the series “in vitro [5]” (liver microsomes, t (1 / 2)), 166 min. The molecule further came in with a chromatographic logD in series [2] of 2.78. For the same molecule, the IC50 at 24 h in [3] was greater than 50 µg/mL. This molecule also returned a CLint in vitro in series [4] of 55 µL/min/mg. Besides, the IC50 in the series with Trypanosoma brucei [6] (setting [18]) was greater than 5 µg/mL. In “in vitro [7]” (setting [19]), the microsomal CLint at 1 µM amounted to 5 µL/min/mg. In series [8], this molecule registered a kinetic solubility of 25 µM (≈ 5.81 µg/mL).
As to `O/N=C(\NC1CCCCC1)c1c(F)cccc1F`, the half-life at 1 µM in the series “in vitro [1]” (microsomes, t (1 / 2)) is 104 min; in “in vitro [5]” (microsomes, t (1 / 2)), greater than 350 min. Moreover, the chromatographic logD in series [2] worked out at 3.67. The IC50 at 24 h in series [3] was greater than 50 µg/mL. Moreover, the CLint in vitro in series [4] was 8 µL/min/mg. Also, in the series with Trypanosoma brucei [6] (setting [18]), the concentration for half-maximal inhibition (IC50) is greater than 5 µg/mL. In the series “in vitro [7]” (microsomes, CLint in vitro), this molecule displayed a microsomal CLint at 1 µM of less than 5 µL/min/mg. In series [8], this molecule yielded a kinetic solubility of 50 µM (≈ 12.7 µg/mL).
Regarding `CCCCCC(C)NCc1coc(-c2ccc(-c3ccccc3)cc2)n1` (stereo not given), the IC50 was 6.78 µg/mL (≈ 19.5 µM) in series [14]; 6.4 µg/mL (≈ 18.4 µM) with Trypanosoma cruzi; 0.4 µg/mL (≈ 1.15 µM) with Trypanosoma brucei [16]; 5 µg/mL (≈ 14.3 µM) in the series on Leishmania donovani; 1.68 µg/mL (≈ 4.82 µM) in the series with Plasmodium falciparum; 0.25 µg/mL and 0.42 µg/mL in the series with Trypanosoma brucei [6]. Also, the IC50 with Trypanosoma brucei [6] (setting [18]) was determined as 0.24 µg/mL (≈ 0.689 µM); in [17] it was 0.321 µg/mL (≈ 0.921 µM). In [9], this molecule had an IC50 at 72 h of 1.83 µg/mL (≈ 5.25 µM). This molecule returned a chromatographic logD in [2] of 4.94. In [15], this molecule returned a solubility (kinetic) of less than 1 µM. The molecule further came in with an IC50 at 24 h in series [3] greater than 50 µg/mL. This molecule registered a CLint in vitro in series [10] of 1 µL/min/mg. The half-life at 10 µM was determined as 4770 min in series [11] and 573 min in series [13]. Besides, the microsomal CLint at 10 µM in series [12] came to 5 µL/min/mg.
On to `O/N=C(\NC1CCCCC1)c1ccc(F)cc1`, for which the half-life at 1 µM in “in vitro [1]” (liver microsomes, t (1 / 2)) amounted to 16 min; in the series “in vitro [5]” (liver microsomes, t (1 / 2)), 72 min. In addition, the chromatographic logD in [2] is 4.02. Moreover, the concentration for half-maximal inhibition (IC50) at 24 h in series [3] was greater than 50 µg/mL. The same molecule showed a CLint in vitro in [4] of 53 µL/min/mg. Further, the IC50 in the series with Trypanosoma brucei [6] (setting [18]) was 4.92 µg/mL (≈ 20.8 µM). This molecule returned a microsomal CLint at 1 µM in “in vitro [7]” (setting [19]) of 12 µL/min/mg. The solubility (kinetic) in series [8] was greater than 200 µM.
